Assay results published in article PMC6224419, “Structural Studies based on two Lysine Dioxygenases with Distinct Regioselectivity Brings Insights Into Enzyme Specificity within the Clavaminate Synthase-Like Family” (Scientific Reports, 2018).
Like-named read-outs stand apart in the source and are kept apart here.

Columns and labels:
[1] = target: T1, KDO1 (Catenulispora acidiphila, UniProt C7QJ42); type: binding; settings: active site
T1 construct: gene Caci_0231; hexa-histidine tail (pET-22b(+)), E. coli BL21(DE3); dimer in solution; first ordered residue Glu30
T1 sequence (C7QJ42 1-358): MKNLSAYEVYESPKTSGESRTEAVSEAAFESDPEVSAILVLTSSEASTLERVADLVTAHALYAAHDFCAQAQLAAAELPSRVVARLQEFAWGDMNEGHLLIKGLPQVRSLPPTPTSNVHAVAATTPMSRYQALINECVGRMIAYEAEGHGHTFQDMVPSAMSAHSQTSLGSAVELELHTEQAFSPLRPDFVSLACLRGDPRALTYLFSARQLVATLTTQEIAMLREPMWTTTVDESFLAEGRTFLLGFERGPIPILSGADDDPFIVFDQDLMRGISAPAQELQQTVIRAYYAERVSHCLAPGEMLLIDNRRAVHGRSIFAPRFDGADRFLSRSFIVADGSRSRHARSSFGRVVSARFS

[2] = target: T2, KDO5 (Flavobacterium sp. CF136, UniProt J3BZS6); experiment: X-ray crystal structure (soak); type: binding; settings: active site
T2 construct: gene PMI10_03368; hexa-histidine tail (pET-22b(+)), E. coli BL21(DE3); tetramer in solution; first ordered residue Ala13

[3] = target: the molecule itself; experiment: SEC; analytic gel filtration on Superdex 200 Increase 10/300 GL, 100 µL purified protein, 50 mM Tris-HCl pH 8.0, 50 mM NaCl, 10% glycerol, 0.3 ml/min; oligomeric state from elution volume against a calibration curve; data not shown
[4] = FeSO4/dithionite soak, monomer C

NCCC[C@H](O)[C@H](N)C(=O)O [(3S)-3-hydroxy-L-lysine]
X-ray crystal structure (soak) ([1]; FeSO4/dithionite soak with succinate, monomer B): The (3S)-3-hydroxy-L-lysine makes salt bridges with Glu180

NCCCC[C@H](N)C(=O)O [L-lysine]
X-ray crystal structure (soak) [2, 4]: the carboxylate of L-lysine substrate is stabilized by salt bridges with the Arg338 | X-ray crystal structure (soak) [1, 4]: In KDO1, the L-lysine complex shows a well ordered lysine in monomer C

O=C(O)CCC(=O)O [succinate]
X-ray crystal structure (soak) ([2]; crystals soaked with L-lysine and α-ketoglutarate, FeSO4/dithionite, monomer D): The succinate resultant from the oxidative decarboxylation of the α-KG, makes H-bond Tyr193

O=C(O)CCC(=O)C(=O)O [α-KG]
X-ray crystal structure (soak) ([2]; FeSO4/dithionite soak, bidentate to iron, monomer A): In α-KG bound structure, α-KG is best defined for monomer A | X-ray crystal structure (soak) ([1]; FeSO4/dithionite soak, bidentate to iron, monomer B): In the α-KG crystals, the structure shows a well ordered α-KG in monomer B

B1: KDO1 from Catenulispora acidiphila (L-lysine dioxygenase, C-3 regioselective) (enzyme, UniProt C7QJ42 1-358, looked up)
chain: MKNLSAYEVYESPKTSGESRTEAVSEAAFESDPEVSAILVLTSSEASTLERVADLVTAHALYAAHDFCAQAQLAAAELPSRVVARLQEFAWGDMNEGHLLIKGLPQVRSLPPTPTSNVHAVAATTPMSRYQALINECVGRMIAYEAEGHGHTFQDMVPSAMSAHSQTSLGSAVELELHTEQAFSPLRPDFVSLACLRGDPRALTYLFSARQLVATLTTQEIAMLREPMWTTTVDESFLAEGRTFLLGFERGPIPILSGADDDPFIVFDQDLMRGISAPAQELQQTVIRAYYAERVSHCLAPGEMLLIDNRRAVHGRSIFAPRFDGADRFLSRSFIVADGSRSRHARSSFGRVVSARFS
notes: KDO1, iron(II)/alpha-ketoacid-dependent lysine dioxygenase of Catenulispora acidiphila; Cloned into pET-22b(+) with a hexa-histidine tail; Dimer in solution; four molecules (two dimers) in the asymmetric unit; First ordered residue in the crystals is Glu30; also called K DiOxygenase 1; source: E. coli BL21(DE3), purified (Ni-NTA)
stoichiometry N [3]: 2

B2: KDO5 from Flavobacterium sp. (L-lysine dioxygenase, C-4 regioselective) (enzyme, UniProt J3BZS6 1-372, looked up)
chain: MKSQSIMSVERSAETSLTLEIPTSPLIIKITQQERNILSNVGNLLVKAFGNYENPDYIASLHLHAFQLLPERITRILSQFGSDFSAEQYGAIVFQGLIEVDQDDLGPTPPNWQGADYGKLNKYGFICSLLHGAVPSKPVQYYAQRKGGGLLHAVIPDEKMAATQTGSGSKTDLFVHTEDAFLSNQADFLSFLYLRNEERVPSTLYSIRSHGKMNPVMKKLFEPIYQCPKDANYNDEDVANSGPTASVLYGNRELPFIRFDAAEQIFNENAGQTSEALGNLMDFWDEAKTLINSDYIPNSGDLIFVNNHLCAHGRSAFIAGQRIENGEIIKCERRQMLRMMSKTSLIHIRSVTRTDDPYFIMEEHLGKIFDLD
notes: KDO5, iron(II)/alpha-ketoacid-dependent lysine dioxygenase of Flavobacterium sp; Cloned into pET-22b(+) with a hexa-histidine tail; Tetramer in solution; four molecules (two dimers) in the asymmetric unit; First ordered residue in the crystals is Ala13; also called K DiOxygenase 5; source: E. coli BL21(DE3), purified (Ni-NTA)
stoichiometry N [3]: 4
